In paper PMC3836994, “Killer Bee Molecules: Antimicrobial Peptides as Effector Molecules to Target Sporogonic Stages of Plasmodium” (PLoS Pathogens, 2013):
No end group written: not given here.

Assays:
P. berghei = P. berghei infections in Anopheles stephensi (oocyst prevalence and intensity); type: in vivo, Plasmodium berghei; conditions: for Prevalence (proportion of infected mosquitoes), peptide: 50 µM peptide in gametocytaemic mouse blood fed to An. stephensi; for Intensity (mean number of oocysts, range in parentheses), peptide: 50 µM peptide, An. stephensi
Method: To assess the effects of AMPs on parasites in vivo, mouse blood containing P. berghei gametocytes was obtained by cardiac puncture and 475 µl was rapidly mixed with 25 µl (50 µM final concentration) of AMP. This mixture was fed to 100 nulliparous 3–5 day old female An. stephensi. A further 475 µl of blood from the same infection was mixed with 25 µl of distilled water to act as a control. Mosquitoes were maintained at 19°C for optimum parasite development. Between 30 and 50 mosquitoes were dissected after 10 days. Mosquito wing length, numbers of retained eggs and oocysts were recorded in triplicate experiments carried out on different mosquito cohorts.

P. falciparum = assay: Cultured P. falciparum gametocytes membrane-fed to An. gambiae (oocyst prevalence and intensity); type: in vivo, Plasmodium falciparum; conditions: 50 µM; for Oocyst intensity (mean number of oocysts per gut, range in parentheses), peptide / Oocyst prevalence (oocyst positive mosquitoes), peptide: cultured gametocytes, An. gambiae
Method: P. falciparum NF54 gametocytes were produced through large-scale automated culture at the Pasteur Institute, Paris, [69]. Gametocytes were grown in 10 ml RPMI 1640 medium (Invitrogen), supplemented with 25 mM HEPES and L-glutamine, 10% heat-inactivated human serum and hypoxanthine (20 mg/L) under a constant gas supply (5% CO2, 1% O2, 94% N2). Fresh red blood cells (RBCs) were added to obtain a 7% haematocrit. Fourteen days after initiating the culture, gametocyte maturity was assessed on thin Giemsa-stained blood smears, and male gametocyte maturity verified by exflagellation tests. Gametocyte cultures were centrifuged for 5 min at 1500 rpm and the ∼500–600 µl pellet resuspended in fresh RBCs and AB human serum to give a final haematocrit of 40%.
Blood containing mature gametocytes (475 µl) was added to 25 µl of the test AMP (50 µM final concentration). Peptides were replaced by 25 µl of sterile deionized water for each control. The blood/parasite/peptide mixture was placed in a Hemotek membrane feeder, previously warmed to 37°C. For each feed, 70 to 100 nulliparous female An. gambiae mosquitoes were left to feed in the dark for 15 min and only fully engorged females were transferred to small cages and provided with 10% sucrose containing 0.05% PABA. After 8 days, 30 midguts were dissected and stained with bromo fluorescein for the detection of oocysts.

AGYLLGKINLKALAALAKKILGGAGYLLGKINLKALAALAKKIL [TP10 dimer, TP10 (dimer)]
Prevalence (proportion of infected mosquitoes), peptide (P. berghei; Replicate 1): 56% (50)
Intensity (mean number of oocysts, range in parentheses), peptide (P. berghei; Replicate 1): 2 (0–84)
Prevalence (proportion of infected mosquitoes), peptide (P. berghei; Replicate 2): 66% (50)
Intensity (mean number of oocysts, range in parentheses), peptide (P. berghei; Replicate 2): 4 (0–67)
Prevalence (proportion of infected mosquitoes), peptide (P. berghei; Replicate 3): 56% (50)
Intensity (mean number of oocysts, range in parentheses), peptide (P. berghei; Replicate 3): 2 (0–13)
Oocyst intensity (mean number of oocysts per gut, range in parentheses), peptide (P. falciparum; Replicate 1): <1 (0–2)
Oocyst prevalence (oocyst positive mosquitoes), peptide (P. falciparum; Replicate 1, dissected after 8 days): 17% (30)
Oocyst intensity (mean number of oocysts per gut, range in parentheses), peptide (P. falciparum; Replicate 2): 0
Oocyst prevalence (oocyst positive mosquitoes), peptide (P. falciparum; Replicate 2): 0% (30)
Oocyst intensity (mean number of oocysts per gut, range in parentheses), peptide (P. falciparum; Replicate 3): 2 (0–14)
Oocyst prevalence (oocyst positive mosquitoes), peptide (P. falciparum; Replicate 3): 37% (30)
Average reduction of intensity of infection (P. falciparum; over three replicates): 82%
Average reduction of prevalence (P. falciparum; over three replicates): 60%

KFPKFRRGIPFLFVGPSGKFPKFRRGIPFLFV [Vida 3 dimer]
Prevalence (proportion of infected mosquitoes), peptide (P. berghei; Replicate 1): 33% (40)
Intensity (mean number of oocysts, range in parentheses), peptide (P. berghei; Replicate 1): 1 (0–6)
Prevalence (proportion of infected mosquitoes), peptide (P. berghei; Replicate 2): 80% (50)
Intensity (mean number of oocysts, range in parentheses), peptide (P. berghei; Replicate 2): 37 (0–271)
Prevalence (proportion of infected mosquitoes), peptide (P. berghei; Replicate 3): 76% (50)
Intensity (mean number of oocysts, range in parentheses), peptide (P. berghei; Replicate 3): 4 (0–67)
